Marks after values point to notes of the source that are not given here.
Columns and labels:
hSERT [1] = molecular target: T1, hSERT (Homo sapiens, UniProt P31645); test: hSERT membrane radioligand binding assay (3H-citalopram); settings: hSERT membranes, 1.0 nM 3H-citalopram; for Ki: read-out: SERT pKi (converted)
T1 construct: expressed in transfected cells; host or cells: HEK-293
Description: (§1) Membrane radioligand binding assays were used to measure inhibition of labeled ligand (^3H-citalopram or ^3H-nisoxetine or ^3H-WIN35428) binding to membranes prepared from cells expressing the respective human recombinant transporter (hSERT or hNET or hDAT) in order to determine the pKi values of test compounds at the transporters.
(§2) Recombinant human embryonic kidney (HEK-293) derived cell lines stably transfected with hSERT or hNET, respectively, were grown in DMEM medium supplemented with 10% dialyzed FBS (for hSERT) or FBS (for hNET), 100 μg/ml penicillin, 100 μg/ml streptomycin, 2 mM L-glutamine and 250 μg/ml of the aminoglycoside antibiotic G418, in a 5% CO2 humidified incubator at 37° C. When cultures reached 80% confluence, the cells were washed thoroughly in PBS (without Ca^2+ and Mg^2+) and lifted with 5 mM EDTA in PBS. Cells were pelleted by centrifugation, resuspended in lysis buffer (10 mM Tris-HCl, pH7.5 containing 1 mM EDTA), homogenized, pelleted by centrifugation, then resuspended in 50 mM Tris-HCl, pH 7.5 and 10% sucrose at 4° C. Protein concentration of the membrane suspension was determined using a Bio-Rad Bradford Protein Assay kit. Membranes were snap frozen and stored at −80° C. Chinese hamster ovary membranes expressing hDAT (CHO-DAT) were purchased from PerkinElmer and stored at −80° C.
(§3) Binding assays were performed in a 96-well assay plate in a total volume of 200 μL assay buffer (50 mM Tris-HCl, 120 mM NaCl, 5 mM KCl, pH 7.4) with 0.5, 1, and 3 μg membrane protein, for SERT, NET and DAT, respectively.
(§4) Stock solutions (10 mM in DMSO) of test compound were prepared and serial dilutions made using Dilution Buffer (50 mM Tris-HCl, 120 mM NaCl, 5 mM KCl, pH 7.4, 0.1% BSA, 400 μM ascorbic acid).
(§5) Following a 60 minute incubation at 22° C. (or a period sufficient to reach equilibrium), the membranes were harvested by rapid filtration over a 96-well UniFilter GF/B plate, pretreated with 0.3% polyethyleneimine, and washed 6 times with 300 μl wash buffer (50 mM Tris-HCl, 0.9% NaCl, pH 7.5 at 4° C.). Plates were dried overnight at room temperature, ˜45 μl of MicroScint™-20 (Perkin Elmer) added and bound radioactivity quantitated via liquid scintillation spectroscopy. Inhibition curves and saturation isotherms were analyzed using GraphPad Prism Software package (GraphPad Software, Inc., San Diego, Calif.). IC50 values were generated from concentration response curves using the Sigmoidal Dose Response (variable slope) algorithm in Prism GraphPad. Kd and Bmax values for the radioligand were generated from saturation isotherms using the Saturation Binding Global Fit algorithm in Prism GraphPad. pKi (negative decadic logarithm of Ki) values for test compounds were calculated from the best-fit IC50 values, and the Kd value of the radioligand, using the Cheng-Prusoff equation (Cheng & Prusoff (1973) Biochem. Pharmacol. 22(23):3099-3108): Ki=IC50/(1+[L]/Kd), where [L]=concentration radioligand.

hNET [2] = molecular target: T2, hNET (Homo sapiens, UniProt P23975); test: hNET membrane radioligand binding assay (3H-nisoxetine); settings: hNET membranes, 1.0 nM 3H-nisoxetine; for Ki: read-out: NET pKi (converted)
T2 construct: expressed in transfected cells; host or cells: HEK-293
T2 sequence (P23975 whole entry): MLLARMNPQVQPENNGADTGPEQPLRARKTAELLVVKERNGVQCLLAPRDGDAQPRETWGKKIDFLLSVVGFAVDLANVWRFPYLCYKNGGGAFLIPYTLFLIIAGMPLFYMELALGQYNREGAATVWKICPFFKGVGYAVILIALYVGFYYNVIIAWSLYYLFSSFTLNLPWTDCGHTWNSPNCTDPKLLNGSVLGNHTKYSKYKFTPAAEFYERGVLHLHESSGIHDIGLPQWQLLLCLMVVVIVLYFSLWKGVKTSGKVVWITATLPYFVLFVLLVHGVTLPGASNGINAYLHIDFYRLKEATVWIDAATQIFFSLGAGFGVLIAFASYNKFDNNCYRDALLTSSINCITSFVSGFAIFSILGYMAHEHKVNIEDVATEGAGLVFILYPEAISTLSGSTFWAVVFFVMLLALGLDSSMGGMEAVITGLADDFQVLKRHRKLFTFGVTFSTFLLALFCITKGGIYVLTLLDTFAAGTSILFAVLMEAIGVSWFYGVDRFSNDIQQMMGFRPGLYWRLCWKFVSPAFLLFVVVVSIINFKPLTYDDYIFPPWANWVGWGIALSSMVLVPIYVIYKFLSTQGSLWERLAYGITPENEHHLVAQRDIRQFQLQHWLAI
Description: as §1, §2, §3, §4, §5

hSERT [3] = molecular target: T1, hSERT; test: fluorescence-based serotonin reuptake assay (Tsuruda et al. 2010; data with asterisk); format: cell-based; settings: serotonin reuptake inhibition, fluorescence-based assay (data indicated by an asterisk); for IC50: read-out: SERT pIC50 (converted)
hNET [4] = molecular target: T2, hNET; test: fluorescence-based norepinephrine reuptake assay (Tsuruda et al. 2010; data with asterisk); format: cell-based; settings: norepinephrine reuptake inhibition, fluorescence-based assay (data indicated by an asterisk); for IC50: read-out: NET pIC50 (converted)

T1 sequence (P31645 whole entry): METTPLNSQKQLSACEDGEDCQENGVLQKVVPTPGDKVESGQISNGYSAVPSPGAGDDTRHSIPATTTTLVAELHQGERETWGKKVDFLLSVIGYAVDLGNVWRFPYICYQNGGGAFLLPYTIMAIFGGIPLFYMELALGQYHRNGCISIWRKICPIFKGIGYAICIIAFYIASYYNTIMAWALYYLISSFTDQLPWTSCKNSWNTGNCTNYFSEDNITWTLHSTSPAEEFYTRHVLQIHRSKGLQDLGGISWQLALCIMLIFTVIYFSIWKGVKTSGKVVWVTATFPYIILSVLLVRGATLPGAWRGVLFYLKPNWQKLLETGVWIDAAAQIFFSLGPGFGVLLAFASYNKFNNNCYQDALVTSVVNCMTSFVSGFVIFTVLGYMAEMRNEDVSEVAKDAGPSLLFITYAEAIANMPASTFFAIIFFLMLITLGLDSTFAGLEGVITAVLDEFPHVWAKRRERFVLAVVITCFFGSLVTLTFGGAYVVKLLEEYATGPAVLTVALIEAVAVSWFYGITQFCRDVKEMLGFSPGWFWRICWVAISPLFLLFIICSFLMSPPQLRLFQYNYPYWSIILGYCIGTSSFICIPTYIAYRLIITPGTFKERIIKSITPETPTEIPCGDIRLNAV

Fc1cc(F)c(OCc2ncccc2C2CCNCC2)c(F)c1 [Example 1, 2-(2,4,6-Trifluorophenoxymethyl)-1′,2′,3′,4′,5′,6′-hexahydro[3,4]bipyridinyl]
Ki (hSERT [1]): ≤ 100 nM
Ki (hNET [2]): ≤ 100 nM

c1ccc(OCc2ncccc2C2CCNCC2)cc1 [Example 2-1]
SERT pKi (hSERT [1]): ≧5.0
NET pKi (hNET [2]): ≧6.0

Fc1ccccc1OCc1ncccc1C1CCNCC1 [Example 2-2]
SERT pKi (hSERT [1]): ≧6.0
NET pKi (hNET [2]): ≧7.0

Clc1cccc(OCc2ncccc2C2CCNCC2)c1 [Example 2-3]
SERT pKi (hSERT [1]): ≧7.0
NET pKi (hNET [2]): ≧5.0

Fc1cccc(F)c1OCc1ncccc1C1CCNCC1 [Example 2-4]
SERT pKi (hSERT [1]): ≧6.0
NET pKi (hNET [2]): ≧7.0

Fc1cccc(Cl)c1OCc1ncccc1C1CCNCC1 [Example 2-5]
SERT pKi (hSERT [1]): ≧7.0
NET pKi (hNET [2]): ≧7.0

Clc1cccc(Cl)c1OCc1ncccc1C1CCNCC1 [Example 2-6]
SERT pKi (hSERT [1]): ≧7.0
NET pKi (hNET [2]): ≧7.0

Fc1ccc(F)c(OCc2ncccc2C2CCNCC2)c1F [Example 2-7]
SERT pKi (hSERT [1]): ≧7.0
NET pKi (hNET [2]): ≧6.0

Fc1cc(Cl)cc(F)c1OCc1ncccc1C1CCNCC1 [Example 2-8]
SERT pKi (hSERT [1]): ≧7.0
NET pKi (hNET [2]): ≧6.0

Fc1ccc(F)c(OCc2ncccc2C2CCNCC2)c1Cl [Example 2-9]
SERT pKi (hSERT [1]): ≧7.0
NET pKi (hNET [2]): ≧6.0
SERT pIC50 (hSERT [3]): ≧7.0*
NET pIC50 (hNET [4]): ≧7.0*

Fc1cccc(F)c1OCc1cnccc1C1CCNCC1 [Example 5, 3′-(2,6-Difluorophenoxymethyl)-1,2,3,4,5,6-hexahydro[4,4′]bipyridinyl]
Ki (hSERT [1]): ≤ 100 nM
Ki (hNET [2]): ≤ 100 nM

c1ccc(OCc2cnccc2C2CCNCC2)cc1 [Example 6-1]
SERT pKi (hSERT [1]): ≧6.0
NET pKi (hNET [2]): ≧5.0

Fc1ccccc1OCc1cnccc1C1CCNCC1 [Example 6-2]
SERT pKi (hSERT [1]): ≧7.0
NET pKi (hNET [2]): ≧6.0

Clc1cccc(OCc2cnccc2C2CCNCC2)c1 [Example 6-3]
SERT pKi (hSERT [1]): ≧7.0
NET pKi (hNET [2]): ≧5.0

Fc1cccc(Cl)c1OCc1cnccc1C1CCNCC1 [Example 6-4]
SERT pKi (hSERT [1]): ≧7.0
NET pKi (hNET [2]): ≧7.0

Clc1cccc(Cl)c1OCc1cnccc1C1CCNCC1 [Example 6-5]
SERT pKi (hSERT [1]): ≧7.0
NET pKi (hNET [2]): ≧7.0

Fc1ccc(F)c(OCc2cnccc2C2CCNCC2)c1F [Example 6-6]
SERT pKi (hSERT [1]): ≧7.0
NET pKi (hNET [2]): ≧6.0

Fc1cc(F)c(OCc2cnccc2C2CCNCC2)c(F)c1 [Example 6-7]
SERT pKi (hSERT [1]): ≧7.0
NET pKi (hNET [2]): ≧7.0

Fc1cc(Cl)cc(F)c1OCc1cnccc1C1CCNCC1 [Example 6-8]
SERT pKi (hSERT [1]): ≧7.0
NET pKi (hNET [2]): ≧6.0

Fc1ccc(F)c(OCc2cnccc2C2CCNCC2)c1Cl [Example 6-9]
SERT pKi (hSERT [1]): ≧7.0
NET pKi (hNET [2]): ≧7.0

c1ccc(OCc2ccncc2C2CCNCC2)cc1 [Example 10-1]
SERT pKi (hSERT [1]): ≧6.0
NET pKi (hNET [2]): ≧6.0

Fc1ccccc1OCc1ccncc1C1CCNCC1 [Example 10-2]
SERT pKi (hSERT [1]): ≧7.0
NET pKi (hNET [2]): ≧7.0

Fc1cccc(F)c1OCc1ccncc1C1CCNCC1 [Example 10-3]
SERT pKi (hSERT [1]): ≧7.0
NET pKi (hNET [2]): ≧7.0

Clc1cccc(Cl)c1OCc1ccncc1C1CCNCC1 [Example 10-5]
SERT pKi (hSERT [1]): ≧7.0
NET pKi (hNET [2]): ≧7.0

Clc1cccc(OCc2ccncc2C2CCNCC2)c1 [Example 10-6]
SERT pKi (hSERT [1]): ≧7.0
NET pKi (hNET [2]): ≧6.0

Fc1ccc(F)c(OCc2ccncc2C2CCNCC2)c1F [Example 10-7]
SERT pKi (hSERT [1]): ≧7.0
NET pKi (hNET [2]): ≧7.0

Fc1cc(Cl)cc(F)c1OCc1ccncc1C1CCNCC1 [Example 10-8]
SERT pKi (hSERT [1]): ≧7.0
NET pKi (hNET [2]): ≧7.0

Fc1ccc(F)c(OCc2ccncc2C2CCNCC2)c1Cl [Example 10-9]
SERT pKi (hSERT [1]): ≧7.0
NET pKi (hNET [2]): ≧7.0

c1ccc(OCc2cccnc2C2CCNCC2)cc1 [Example 14-1]
SERT pKi (hSERT [1]): ≧6.0
NET pKi (hNET [2]): ≧6.0

Fc1ccccc1OCc1cccnc1C1CCNCC1 [Example 14-2]
SERT pKi (hSERT [1]): ≧6.0
NET pKi (hNET [2]): ≧7.0

Clc1cccc(OCc2cccnc2C2CCNCC2)c1 [Example 14-3]
SERT pKi (hSERT [1]): ≧7.0
NET pKi (hNET [2]): ≧5.0

Fc1cccc(F)c1OCc1cccnc1C1CCNCC1 [Example 14-4]
SERT pKi (hSERT [1]): ≧6.0
NET pKi (hNET [2]): ≧7.0

Fc1cccc(Cl)c1OCc1cccnc1C1CCNCC1 [Example 14-5]
SERT pKi (hSERT [1]): ≧7.0
NET pKi (hNET [2]): ≧7.0

Clc1cccc(Cl)c1OCc1cccnc1C1CCNCC1 [Example 14-6]
SERT pKi (hSERT [1]): ≧7.0
NET pKi (hNET [2]): ≧7.0

Fc1ccc(F)c(OCc2cccnc2C2CCNCC2)c1F [Example 14-7]
SERT pKi (hSERT [1]): ≧7.0
NET pKi (hNET [2]): ≧7.0

Fc1cc(Cl)cc(F)c1OCc1cccnc1C1CCNCC1 [Example 14-8]
SERT pKi (hSERT [1]): ≧7.0
NET pKi (hNET [2]): ≧7.0

c1ccc(OCc2occc2C2CCNCC2)cc1 [Example 17, 4-(2-Phenoxymethylfuran-3-yl)piperidine]
IC50 (hSERT [3]): ≤ 100 nM
IC50 (hNET [4]): ≤ 100 nM

Clc1cccc(Cl)c1OCc1occc1C1CCNCC1 [Example 18-1]
SERT pIC50 (hSERT [3]): ≧7.0*
NET pIC50 (hNET [4]): ≧4.5*

Clc1cccc(OCc2occc2C2CCNCC2)c1 [Example 18-2]
SERT pIC50 (hSERT [3]): ≧7.0*
NET pIC50 (hNET [4]): ≧7.0*

Fc1cccc(F)c1OCc1occc1C1CCNCC1 [Example 18-3]
SERT pIC50 (hSERT [3]): ≧6.0*
NET pIC50 (hNET [4]): ≧5.0*

Clc1cccc(OCc2ccoc2C2CCNCC2)c1 [Example 21, 4-[3-(3-Chlorophenoxymethyl)furan-2-yl]piperidine]
IC50 (hSERT [3]): ≤ 100 nM
IC50 (hNET [4]): ≤ 100 nM

c1ccc(OCc2ccoc2C2CCNCC2)cc1 [Example 22-1]
SERT pIC50 (hSERT [3]): ≧6.0*
NET pIC50 (hNET [4]): ≧7.0*

Fc1cccc(F)c1OCc1ccoc1C1CCNCC1 [Example 22-2]
SERT pIC50 (hSERT [3]): ≧5.0*
NET pIC50 (hNET [4]): ≧6.0*

Clc1cccc(Cl)c1OCc1sccc1C1CCNCC1 [Example 25-1]
SERT pKi (hSERT [1]): ≧7.0
NET pKi (hNET [2]): ≧5.0

Fc1cccc(F)c1OCc1sccc1C1CCNCC1 [Example 25-2]
SERT pKi (hSERT [1]): ≧6.0
NET pKi (hNET [2]): ≧6.0

Fc1cccc(Cl)c1OCc1sccc1C1CCNCC1 [Example 25-3]
SERT pKi (hSERT [1]): ≧7.0
NET pKi (hNET [2]): ≧5.0

Fc1ccc(F)c(OCc2sccc2C2CCNCC2)c1F [Example 25-4]
SERT pKi (hSERT [1]): ≧6.0
NET pKi (hNET [2]): ≧6.0

Fc1ccccc1OCc1cscc1C1CCNCC1 [Example 28-1]
SERT pKi (hSERT [1]): ≧7.0
NET pKi (hNET [2]): ≧7.0

Clc1cccc(OCc2cscc2C2CCNCC2)c1 [Example 28-2]
SERT pKi (hSERT [1]): ≧7.0
NET pKi (hNET [2]): ≧6.0

Fc1cc(Cl)cc(F)c1OCc1cscc1C1CCNCC1 [Example 28-4]
SERT pKi (hSERT [1]): ≧7.0
NET pKi (hNET [2]): ≧7.0

Fc1ccc(F)c(OCc2cscc2C2CCNCC2)c1Cl [Example 28-5]
SERT pKi (hSERT [1]): ≧7.0
NET pKi (hNET [2]): ≧7.0

c1ccc(OCc2ccsc2C2CCNCC2)cc1 [Example 30, 4-(3-Phenoxymethylthiophen-2-yl)piperidine]
Ki (hSERT [1]): ≤ 100 nM
Ki (hNET [2]): ≤ 100 nM

Fc1ccccc1OCc1ccsc1C1CCNCC1 [Example 31-1]
SERT pKi (hSERT [1]): ≧6.0
NET pKi (hNET [2]): ≧7.0

Fc1cc(Cl)cc(F)c1OCc1ccsc1C1CCNCC1 [Example 31-4]
SERT pKi (hSERT [1]): ≧7.0
NET pKi (hNET [2]): ≧7.0
